Columns and labels:
[1] = target: T1, Human immunodeficiency virus type 1 protease (Human immunodeficiency virus 1, UniProt Q72874); experiment: Binding affinity to HIV-1 protease was determined
[2] = target: T1, Human immunodeficiency virus type 1 protease; experiment: Binding affinity against HIV-1 protease was determined

| Structure (SMILES) | Ki [1] [nM] | Ki [2] [nM] |
| --- | --- | --- |
| COc1ccc(S(=O)(=O)N(CC2CCCC2)C[C@@H](O)CN(CCc2ccccc2)C(=O)Cc2ccccc2)cc1 | 20 |  |
| COc1ccc(S(=O)(=O)N(CC2CCCC2)C[C@@H](O)CN(CCc2ccccc2)C(=O)Nc2ccccc2)cc1 |  | > 20000 |
| COc1ccc(S(=O)(=O)N(CC2CCCC2)C[C@@H](O)CN(CCc2ccccc2)C(=O)OCc2cncs2)cc1 | 38 |  |
| COc1ccc(S(=O)(=O)N(CC2CCCC2)C[C@@H](O)CN(Cc2ccccc2)C(=O)O[C@H]2CCOC2)cc1 | 600 |  |
| COc1ccc(S(=O)(=O)N(CC2CCCC2)C[C@@H](O)CN(CCc2ccccc2)C(=O)OC2CCCSC2)cc1 (some centres undefined) | 300 |  |
| COc1ccc(S(=O)(=O)N(CC2CCCC2)C[C@@H](O)CN(CCc2ccccc2)C(=O)OC2CCCS(=O)(=O)C2)cc1 (some centres undefined) | 1400 |  |
| COc1ccc(S(=O)(=O)N(CC2CCCC2)C[C@@H](O)CN(CCc2ccccc2)C(=O)Cc2cccc(O)c2C)cc1 | 66 |  |
| CNC(=O)N(CCc1ccccc1)C[C@H](O)CN(CC1CCCC1)S(=O)(=O)c1ccc(OC)cc1 |  | 3400 |
| COc1ccc(S(=O)(=O)N(CC2CCCC2)C[C@@H](O)CN(CCc2ccccc2)C(=O)NC(C)C)cc1 |  | > 10000 |
| COc1ccc(S(=O)(=O)N(CC2CCCC2)C[C@@H](O)CN(CCc2ccccc2)C(=O)OC2COCOC2)cc1 | 15 |  |
| COc1ccc(S(=O)(=O)N(CC2CCCC2)C[C@@H](O)CN(CCc2ccccc2)C(=O)NC(C)(C)C)cc1 |  | 2100 |
| COc1ccc(S(=O)(=O)N(CC2CCCC2)C[C@@H](O)CN(CCc2ccccc2)C(=O)O[C@H]2CCOC2)cc1 | 40 |  |
| COc1ccc(S(=O)(=O)N(CC2CCCC2)C[C@@H](O)CN(CCc2ccccc2)C(=O)Oc2ccccc2)cc1 | 173 |  |
| COc1ccc(S(=O)(=O)N(CC2CCCC2)C[C@@H](O)CN(CCc2ccccc2)C(=O)OC2CCSC2)cc1 (some centres undefined) | 104 |  |
| COc1ccc(S(=O)(=O)N(CC2CCCC2)C[C@@H](O)CN(CCc2ccccc2)C(=O)N[C@H]2c3ccccc3C[C@H]2O)cc1 |  | 43 |
| COc1ccc(S(=O)(=O)N(CC2CCCC2)C[C@@H](O)CN(CCc2ccccc2)C(=O)OC2CCS(=O)(=O)C2)cc1 (some centres undefined) | 38 |  |
| COc1ccc(S(=O)(=O)N(CC2CCCC2)C[C@@H](O)CN(CCc2ccccc2)C(=O)Cc2cncc(NS(N)(=O)=O)c2)cc1 | 220 |  |
| COc1ccc(S(=O)(=O)N(CC2CCCC2)C[C@@H](O)CN(CCc2ccccc2)C(=O)OC(C)(C)C)cc1 | 125 |  |
| COc1ccc(S(=O)(=O)N(CC2CCCC2)C[C@@H](O)CN(CCc2ccccc2)C(=O)Nc2cccc(OC)c2)cc1 |  | > 10000 |
| COc1ccc(S(=O)(=O)N(CC2CCCC2)C[C@@H](O)CN(CCc2ccccc2)C(=O)O[C@@H]2CO[C@H]3OCC[C@H]32)cc1 | 50 |  |
| COc1ccc(S(=O)(=O)N(CC2CCCC2)C[C@@H](O)CN(CCc2ccccc2)C(=O)OCc2cccnc2)cc1 | 17 |  |
| COc1ccc(S(=O)(=O)N(CC2CCCC2)C[C@@H](O)CN(CCc2ccccc2)C(=O)Cc2cccc(NS(N)(=O)=O)c2)cc1 | 29 |  |
| COc1ccc(S(=O)(=O)N(CC2CCCC2)C[C@@H](O)CN(CCc2ccccc2)C(=O)NC2CCc3ccccc32)cc1 (some centres undefined) |  | > 10000 |
| COc1ccc(S(=O)(=O)N(CC2CCCC2)C[C@@H](O)CN(CCc2ccccc2)C(=O)CC2CCCC(NS(N)(=O)=O)C2)cc1 (some centres undefined) | 76 |  |
| COc1ccc(S(=O)(=O)N(CC2CCCC2)C[C@@H](O)CN(CCc2ccccc2)C(=O)OCc2ccncc2)cc1 | 200 |  |
| COc1ccc(S(=O)(=O)N(CC2CCCC2)C[C@@H](O)CN(CCc2ccccc2)C(=O)Cc2cccc(NS(N)(=O)=O)c2C)cc1 | 680 |  |
| COc1ccc(S(=O)(=O)N(CC2CCCC2)C[C@@H](O)CN(CCc2ccccc2)C(=O)NCc2ccccc2)cc1 |  | 22 |
| COc1ccc(S(=O)(=O)N(CC2CCCC2)C[C@@H](O)CN(CCc2ccccc2)C(=O)Cc2ccncc2NS(N)(=O)=O)cc1 | 27 |  |
| COc1ccc(S(=O)(=O)N(CC(O)CN(CCc2ccccc2)C(=O)N[C@H](C(=O)OCc2ccccc2)C(C)C)CC2CCCC2)cc1 (single isomer, unassigned) | 7 |  |
